According to the NIST ThermoML archive (doi:10.1016/j.jct.2015.01.007):
± gives the expanded uncertainty stated by the source.

Test: molar heat capacity at constant pressure
Details: 101.33 kPa, Crystal 1

O=P([O-])([O-])[O-].[Fe+2].[Li+] [iron(II) lithium phosphate]
Details	molar heat capacity at constant pressure [J/K/mol]
66.42 K, relaxation calorimetry	28.2 ± 1.1
67.51 K, relaxation calorimetry	28.84 ± 1.2
68.59 K, relaxation calorimetry	29.48 ± 1.2
69.68 K, relaxation calorimetry	30.12 ± 1.2
70 K, combination of DSC and relaxation calorimetry	30.31 ± 1.2
70.77 K, relaxation calorimetry	30.78 ± 1.2
71.15 K, relaxation calorimetry	31.26 ± 1.3
73.24 K, relaxation calorimetry	32.53 ± 1.3
75.34 K, relaxation calorimetry	33.86 ± 1.4
77.43 K, relaxation calorimetry	35.17 ± 1.4
79.53 K, relaxation calorimetry	36.46 ± 1.5
80 K, combination of DSC and relaxation calorimetry	36.84 ± 1.5
81.62 K, relaxation calorimetry	37.8 ± 1.5
83.72 K, relaxation calorimetry	39.15 ± 1.6
85.81 K, relaxation calorimetry	40.41 ± 1.6
87.9 K, relaxation calorimetry	41.69 ± 1.7
90 K, combination of DSC and relaxation calorimetry	43.39 ± 1.8
90 K, relaxation calorimetry	42.91 ± 1.7
92.09 K, relaxation calorimetry	44.24 ± 1.8
94.19 K, relaxation calorimetry	45.59 ± 1.9
96.28 K, relaxation calorimetry	46.89 ± 1.9
98.38 K, relaxation calorimetry	48.18 ± 2
100 K, combination of DSC and relaxation calorimetry	49.48 ± 2
100.47 K, relaxation calorimetry	49.44 ± 2
102.56 K, relaxation calorimetry	50.67 ± 2.1
104.65 K, relaxation calorimetry	52.08 ± 2.1
106.73 K, relaxation calorimetry	53.17 ± 2.2
108.85 K, relaxation calorimetry	54.37 ± 2.2
110 K, combination of DSC and relaxation calorimetry	55.21 ± 2.2
110.94 K, relaxation calorimetry	55.54 ± 2.3
113.02 K, relaxation calorimetry	56.62 ± 2.3
115.13 K, relaxation calorimetry	58.05 ± 2.4
117.22 K, relaxation calorimetry	59.3 ± 2.4
119.27 K, relaxation calorimetry	60.39 ± 2.5
119.96 K, relaxation calorimetry	60.87 ± 2.5
120 K, combination of DSC and relaxation calorimetry	60.65 ± 2.5
120.69 K, relaxation calorimetry	61.12 ± 2.5
121.4 K, relaxation calorimetry	61.55 ± 2.5
122.12 K, relaxation calorimetry	61.93 ± 2.5
122.83 K, relaxation calorimetry	62.24 ± 2.5
123.54 K, relaxation calorimetry	62.63 ± 2.5
124.25 K, relaxation calorimetry	63.1 ± 2.6
124.96 K, relaxation calorimetry	63.45 ± 2.6
125.68 K, relaxation calorimetry	63.84 ± 2.6
126.36 K, relaxation calorimetry	64.12 ± 2.6
127.07 K, relaxation calorimetry	64.49 ± 2.6
127.81 K, relaxation calorimetry	64.96 ± 2.6
130 K, combination of DSC and relaxation calorimetry	65.85 ± 2.7
131.36 K, relaxation calorimetry	66.82 ± 2.7
140 K, combination of DSC and relaxation calorimetry	70.83 ± 2.9
141.32 K, relaxation calorimetry	71.82 ± 2.9
150 K, combination of DSC and relaxation calorimetry	75.59 ± 3.1
151.46 K, relaxation calorimetry	76.8 ± 3.1
160 K, combination of DSC and relaxation calorimetry	80.13 ± 3.2
161.54 K, relaxation calorimetry	81.23 ± 3.3
170 K, combination of DSC and relaxation calorimetry	84.45 ± 3.4
171.6 K, relaxation calorimetry	85.36 ± 3.5
180 K, combination of DSC and relaxation calorimetry	88.56 ± 3.6
181.68 K, relaxation calorimetry	89.21 ± 3.6
190 K, combination of DSC and relaxation calorimetry	92.44 ± 3.8
191.78 K, relaxation calorimetry	93.16 ± 3.8
200 K, combination of DSC and relaxation calorimetry	96.11 ± 3.9
201.84 K, relaxation calorimetry	97.49 ± 4
210 K, combination of DSC and relaxation calorimetry	99.57 ± 4
211.78 K, relaxation calorimetry	100.3 ± 4.1
220 K, combination of DSC and relaxation calorimetry	102.8 ± 4.2
222.01 K, relaxation calorimetry	103.27 ± 4.2
230 K, combination of DSC and relaxation calorimetry	105.9 ± 4.3
232.1 K, relaxation calorimetry	105.66 ± 4.3
240 K, combination of DSC and relaxation calorimetry	108.7 ± 4.4
242.04 K, relaxation calorimetry	108.22 ± 4.4
250 K, combination of DSC and relaxation calorimetry	111.4 ± 4.5
252.15 K, relaxation calorimetry	110.6 ± 4.5
260 K, combination of DSC and relaxation calorimetry	113.9 ± 4.6
262.34 K, relaxation calorimetry	112.67 ± 4.6
270 K, combination of DSC and relaxation calorimetry	116.3 ± 4.7
272.43 K, relaxation calorimetry	114.97 ± 4.7
280 K, combination of DSC and relaxation calorimetry	118.4 ± 4.8
282.56 K, relaxation calorimetry	117.79 ± 4.8
284.9 K, Small sample (50 mg) DSC	120.8 ± 3
290 K, combination of DSC and relaxation calorimetry	120.5 ± 4.9
292.55 K, relaxation calorimetry	120.06 ± 4.9
293.2 K, Large sample (1 g) DSC	120.85 ± 3
294.8 K, Small sample (50 mg) DSC	122.5 ± 3
298.15 K, combination of DSC and relaxation calorimetry	122.1 ± 5
300 K, combination of DSC and relaxation calorimetry	122.4 ± 5
302.7 K, relaxation calorimetry	120.5 ± 4.9
304.6 K, Small sample (50 mg) DSC	126.1 ± 3.1
313.2 K, Large sample (1 g) DSC	125.4 ± 3.1
314.5 K, Small sample (50 mg) DSC	128.2 ± 3.1
320 K, combination of DSC and relaxation calorimetry	129 ± 5.2
324.4 K, Small sample (50 mg) DSC	129.7 ± 3.2
333.2 K, Large sample (1 g) DSC	128 ± 3.1
334.4 K, Small sample (50 mg) DSC	132.2 ± 3.2
340 K, combination of DSC and relaxation calorimetry	133.4 ± 5.4
344.3 K, Small sample (50 mg) DSC	134.8 ± 3.3
353.2 K, Large sample (1 g) DSC	130.1 ± 3.2
354.2 K, Small sample (50 mg) DSC	136.3 ± 3.3
360 K, combination of DSC and relaxation calorimetry	137.6 ± 5.6
364.1 K, Small sample (50 mg) DSC	137.9 ± 3.4
374 K, Small sample (50 mg) DSC	140.2 ± 3.4
380 K, combination of DSC and relaxation calorimetry	141.6 ± 5.8
383.9 K, Small sample (50 mg) DSC	142.9 ± 3.5
393.8 K, Small sample (50 mg) DSC	145.5 ± 3.6
400 K, combination of DSC and relaxation calorimetry	145.3 ± 5.9
403.8 K, Small sample (50 mg) DSC	147 ± 3.6
413.7 K, Small sample (50 mg) DSC	148.9 ± 3.6
420 K, combination of DSC and relaxation calorimetry	148.7 ± 6
423.6 K, Small sample (50 mg) DSC	150.3 ± 3.7
433.5 K, Small sample (50 mg) DSC	151.6 ± 3.7
440 K, combination of DSC and relaxation calorimetry	151.9 ± 6.2
443.4 K, Small sample (50 mg) DSC	152.8 ± 3.7
453.3 K, Small sample (50 mg) DSC	154 ± 3.8
460 K, combination of DSC and relaxation calorimetry	154.9 ± 6.3
463.3 K, Small sample (50 mg) DSC	155 ± 3.8
473.2 K, Small sample (50 mg) DSC	156.3 ± 3.8
480 K, combination of DSC and relaxation calorimetry	157.7 ± 6.4
483.1 K, Small sample (50 mg) DSC	157.5 ± 3.9
493 K, Small sample (50 mg) DSC	159 ± 3.9
500 K, combination of DSC and relaxation calorimetry	160.3 ± 6.5
502.9 K, Small sample (50 mg) DSC	160 ± 3.9
512.8 K, Small sample (50 mg) DSC	161 ± 3.9
520 K, combination of DSC and relaxation calorimetry	162.7 ± 6.6
522.7 K, Small sample (50 mg) DSC	162.2 ± 4
532.6 K, Small sample (50 mg) DSC	163.4 ± 4
540 K, combination of DSC and relaxation calorimetry	164.9 ± 6.7
542.5 K, Small sample (50 mg) DSC	165 ± 4
552.4 K, Small sample (50 mg) DSC	166.2 ± 4.1
560 K, combination of DSC and relaxation calorimetry	167 ± 6.8
562.3 K, Small sample (50 mg) DSC	167.1 ± 4.1
572.3 K, Small sample (50 mg) DSC	168.3 ± 4.1
580 K, combination of DSC and relaxation calorimetry	169 ± 6.9
582.2 K, Small sample (50 mg) DSC	169.6 ± 4.2
592.1 K, Small sample (50 mg) DSC	170.4 ± 4.2
600 K, combination of DSC and relaxation calorimetry	170.9 ± 6.9
602 K, Small sample (50 mg) DSC	171.1 ± 4.2
611.9 K, Small sample (50 mg) DSC	173 ± 4.2
620 K, combination of DSC and relaxation calorimetry	172.8 ± 7
621.8 K, Small sample (50 mg) DSC	173.6 ± 4.3
631.7 K, Small sample (50 mg) DSC	174.2 ± 4.3
640 K, combination of DSC and relaxation calorimetry	174.5 ± 7.1
641.6 K, Small sample (50 mg) DSC	174.9 ± 4.3
651.6 K, Small sample (50 mg) DSC	175.7 ± 4.3
660 K, combination of DSC and relaxation calorimetry	176.3 ± 7.2
661.5 K, Small sample (50 mg) DSC	176.8 ± 4.3
671.8 K, Small sample (50 mg) DSC	177.4 ± 4.3
680 K, combination of DSC and relaxation calorimetry	178.1 ± 7.2
681.3 K, Small sample (50 mg) DSC	178 ± 4.4
691.3 K, Small sample (50 mg) DSC	178.7 ± 4.4
700 K, combination of DSC and relaxation calorimetry	179.8 ± 7.3
701.2 K, Small sample (50 mg) DSC	179.4 ± 4.4
711.1 K, Small sample (50 mg) DSC	180.6 ± 4.4
720 K, combination of DSC and relaxation calorimetry	181.6 ± 7.4
721 K, Small sample (50 mg) DSC	181.6 ± 4.4
730.9 K, Small sample (50 mg) DSC	182.4 ± 4.5
740 K, combination of DSC and relaxation calorimetry	183.5 ± 7.5
740.8 K, Small sample (50 mg) DSC	183.5 ± 4.5
750.8 K, Small sample (50 mg) DSC	184.5 ± 4.5
760 K, combination of DSC and relaxation calorimetry	185.5 ± 7.5
760.7 K, Small sample (50 mg) DSC	185.7 ± 4.5
770.6 K, Small sample (50 mg) DSC	186.9 ± 4.6
